# Test results taken from US20230026232A1, “AHR INHIBITORS AND USES THEREOF” (Ikena Oncology, Inc., priority 2019, published 2023).
# Tests used:
# [1] = Intrinsic dissolution in 0.5% Tween 80; type: physicochemical; conditions: 0.5% Tween 80, 100 rpm, 37° C.
# Description: Milled and as-received API samples were weighed and compressed into a compact using a hydraulic press at 3,000 psi for 60 seconds. Compacts were mounted on intrinsic dissolution apparatus and dissolution study was conducted using USP dissolution apparatus in 250 mL of 0.5% Tween 80 solution at 100 rpm at 37° C. in duplicate. Aliquots (1.0 mL) of dissolution media are taken at selected time-points from each dissolution vessel at 5 minute intervals from 5 to 40 minutes. Each sample was centrifuged at 14,000 rpm for 3 minutes and the supernatant was samples and diluted with diluent for HPLC analysis (Table 7). The retention time of Compound A is about 1.5 minutes.
# The Intrinsic dissolution performance of the jet-milled API vs. as received API was conducted to observe any increase in dissolution by particle size reduction. FIG. 8 and Table 15 below show the intrinsic dissolution results.
# AHR [2] = target: T1, AHR (Homo sapiens, UniProt P35869); test: Phase 1 study: pharmacodynamic modulation of AHR target genes in a whole blood assay; type: in vivo; parameters: endogenous in cells; conditions: all subjects in the 200 mg, 400 mg, and 800 mg cohorts
# T1 sequence (P35869 11-848): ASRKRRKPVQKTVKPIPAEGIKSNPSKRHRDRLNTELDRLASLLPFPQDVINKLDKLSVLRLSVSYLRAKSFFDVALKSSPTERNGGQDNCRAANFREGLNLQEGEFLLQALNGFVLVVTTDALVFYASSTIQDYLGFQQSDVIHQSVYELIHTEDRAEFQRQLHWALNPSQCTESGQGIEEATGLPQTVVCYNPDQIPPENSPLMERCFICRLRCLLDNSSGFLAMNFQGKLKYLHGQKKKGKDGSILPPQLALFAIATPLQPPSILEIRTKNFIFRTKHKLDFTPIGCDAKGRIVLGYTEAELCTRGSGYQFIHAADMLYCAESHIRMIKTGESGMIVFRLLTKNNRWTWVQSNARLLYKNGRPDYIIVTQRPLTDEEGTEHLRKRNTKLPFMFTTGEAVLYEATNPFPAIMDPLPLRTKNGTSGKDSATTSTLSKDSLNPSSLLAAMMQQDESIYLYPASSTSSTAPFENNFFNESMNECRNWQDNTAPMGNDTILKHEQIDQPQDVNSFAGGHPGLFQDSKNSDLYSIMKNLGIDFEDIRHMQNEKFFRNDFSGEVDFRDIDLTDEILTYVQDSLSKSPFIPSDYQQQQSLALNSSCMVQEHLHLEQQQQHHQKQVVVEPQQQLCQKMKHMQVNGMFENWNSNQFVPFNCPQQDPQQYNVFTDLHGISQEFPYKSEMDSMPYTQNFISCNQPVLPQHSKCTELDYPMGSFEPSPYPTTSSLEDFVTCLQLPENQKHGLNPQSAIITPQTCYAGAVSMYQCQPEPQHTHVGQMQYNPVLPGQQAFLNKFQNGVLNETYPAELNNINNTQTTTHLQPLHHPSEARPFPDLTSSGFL
# From the text: Because the starting dose and any higher dose is expected to be near or at the pharmacologically active range, each subject is required to have blood drawn and tumor biopsies for secondary and exploratory pharmacodynamic endpoints. The blood and tumor tissue samples are used to confirm AHR target engagement. Individual subjects can be exempted from the tumor biopsy requirement upon discussion and prior agreement by the Sponsor. The initial sampling strategy is based on the predicted human pharmacodynamics of this compound. If in the course of evaluating the pharmacodynamics, it is determined that an alternative sampling scheme would be more informative, then that alternative sampling scheme can be implemented if the total amount of blood, blood draws, and tumor biopsies obtained for pharmacodynamics is not increased. Moreover, the total number of samples can be decreased at any time if the initial sampling scheme is considered unnecessarily intensive.
# Pharmacodynamic (PD) modulation of AHR target genes were analyzed in a whole blood assay.
# AHR [3] = target: T2, AHR (Rattus norvegicus, UniProt P41738); test: AHR-dependent Cyp1A1 expression (P450-Glo) in rat H411E hepatoma cells stimulated with L-kynurenine; type: cell-based; conditions: 100 μM L-kynurenine, 24 hours
# T2 construct: In rat hepatoma H411E cells treated with 100 μM L-kynurenine; endogenous in cells; host or cells: H411E rat hepatoma cells
# T2 sequence (P41738 10-853): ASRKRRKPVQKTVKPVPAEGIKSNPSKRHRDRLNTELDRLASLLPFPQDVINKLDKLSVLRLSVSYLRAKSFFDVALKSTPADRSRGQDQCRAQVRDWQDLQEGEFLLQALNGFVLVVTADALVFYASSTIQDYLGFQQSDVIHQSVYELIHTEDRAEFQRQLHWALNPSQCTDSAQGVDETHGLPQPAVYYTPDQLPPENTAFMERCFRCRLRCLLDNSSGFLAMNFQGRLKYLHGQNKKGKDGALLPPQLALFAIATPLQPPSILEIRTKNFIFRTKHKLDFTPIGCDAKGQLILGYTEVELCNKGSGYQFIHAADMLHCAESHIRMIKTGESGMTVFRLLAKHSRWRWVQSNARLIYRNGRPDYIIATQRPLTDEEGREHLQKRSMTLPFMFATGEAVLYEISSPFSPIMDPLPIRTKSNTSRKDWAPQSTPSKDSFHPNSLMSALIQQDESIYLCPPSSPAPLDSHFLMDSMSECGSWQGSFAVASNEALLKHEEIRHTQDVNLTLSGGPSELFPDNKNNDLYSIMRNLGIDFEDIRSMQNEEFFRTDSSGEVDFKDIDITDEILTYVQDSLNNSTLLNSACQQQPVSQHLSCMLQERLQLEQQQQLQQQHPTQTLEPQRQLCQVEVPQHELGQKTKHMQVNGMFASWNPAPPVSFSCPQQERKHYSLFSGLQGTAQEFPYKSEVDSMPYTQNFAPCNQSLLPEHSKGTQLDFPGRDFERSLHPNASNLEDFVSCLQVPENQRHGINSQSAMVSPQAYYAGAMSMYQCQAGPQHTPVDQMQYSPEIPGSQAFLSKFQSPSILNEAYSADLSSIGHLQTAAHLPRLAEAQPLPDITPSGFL
# Description: The ability of Compound A to inhibit AHR-dependent Cyp1A1 gene expression was examined in vitro by measuring changes in Cyp1A1 enzymatic activity in 2 rodent hepatoma cell lines following AHR agonist stimulation. Mouse Hepa1.6 and rat H411E hepatoma cells were treated with AHR agonists VAF347 and L-kynurenine, respectively, in the presence of Compound A at multiple concentrations for 24 hours. The inhibition of Cyp1A1 expression was subsequently evaluated by measuring Cyp1A1 enzyme activity using P450-Glo assays.
compound,measurement,setting,value
"CC(C)c1cnn2c(N[C@@H]3CCc4[nH]c5ccccc5c4C3)nc(-c3cncc(F)c3)nc12 [Compound A, (R)—N-(2-(5-fluoropyridin-3-yl)-8-isopropylpyrazolo[1,5-a][1,3,5]triazin-4-yl)-2,3,4,9-tetrahydro-1H-carbazol-3-amine]",IDR (intrinsic dissolution rate),[1],0.85 ug/min*cm^2
same,inhibition of expression of AHR target gene CYP1B1,AHR [2],Robust inhibition
same,IC50,AHR [3],151 nM
